{"source": "patent US20220160703A1", "about": "“TUMOR-SELECTIVE COMBINATION THERAPY” (The Board of Regents of The University of Texas System, priority 2019, published 2022)", "key": {"[1]": {"system": "IFNα/β", "assay": "Type I IFN and cytokine expression in tumor tissue (ELISA, PCR)", "assay_type": "in vivo, mice", "settings": "MC38-OVA, β-lap 0.3 mg i.t. two times, six days later", "experimental": "FIGS. 19A-C (related to FIGS. 4A-F). TLR4/MyD88 pathway but not TLR9 signaling is required for the antitumor effect of β-lap. (FIGS. 19A-B) MC38-OVA bearing mice were treated with β-lap (0.3 mg, i.t.) for two times. Six days later, tumor tissues were collected for both single cell digestion (FIG. 19A) and RNA extraction (FIG. 19B). (FIG. 19A) The secreted IFNβ from the suspended cell supernatant was measured by ELISA after a 24 hr culture. (FIG. 19B) The mRNA levels of IFNα1, IFNγ, TNFα and CXCL10 were determined by real-time PCR assay. (FIG. 19C) MC38 cells were implanted into Myd88^−/−, Tlr4^−/− and Tlr9^−/− C57BL/6 mice, respectively. Tumor bearing mice were then treated with β-lap (0.3 mg, i.t.) every other day for four times. Tumor growth was monitored twice a week. Data are shown as mean±SEM. *P<0.05, **P<0.01, ***P<0.001 determined by unpaired t-test. FIGS. 25A-E. IB-DNQ induces tumor ICD and dendritic cell-mediated T cell cross-priming. (FIG. 25A) The levels of HMGB1 released into cell culture supernatant after IB-DNQ treatment. MC38, MC38 NOQ1^−/−, B16, and B16 NOQ1^+ cells were treated with IB-DNQ for 4 h followed by replacing medium and growth for 24 h, culture supernatant was collected and HMGB1 levels were determined by ELISA. (FIGS. 25B-C) Relative expression of IFN-α and IFN-β. […]"}, "[2]": {"system": "B16 cells stably harboring a pCMV-NQO1 expression vector", "assay": "Cell survival of NQO1 overexpressing B16 cells", "assay_type": "cell-based, murine", "settings": "3 hr exposure, survival 48 hr later", "experimental": "(FIG. 1A) NQO1 positive tumor cell lines MC38, TC-1 and Ag104Ld and NQO1 negative cell lines Panc02 and B16 grown in 48-well plates were treated with β-lap (0-8 μM) for a 3 hr followed by washing and replacing medium. Cell viability was determined by Sulforhodamine B (SRB) Assay 4 days later. […] (FIG. 1C) MC38 cells with CRISPR-based NQO1 Knockout (MC38 NQO1KO #5) planted in 96-well plates were exposed to β-lap for 3 hr and cell survival was assessed 48 hr later. […] (FIG. 1E) MC38 cells were exposed to a lethal dose of β-lap (4 μM) for indicated times, then stained with 7-AAD and Annexin V followed by flow cytometry analysis. […] (FIG. 1H) MC38 and B16 NQO1 #1 cells were exposed to β-lap for a 3 hr. Catalase (1000 U/ml) was added and cell survival was assessed 48 hr later. […] Tumor growth was monitored twice a week.\nFIGS. 17A-I (related to FIGS. 1A-J). […] (FIG. 17A) NQO1 expression in different murine cancer cell lines was determined by western blotting assay. […] Cell viability was determined by Sulforhodamine B (SRB) Assay 48 hr later. […] Cell viability was determined by SRB Assay 48 hr later. […] Catalase (1000 U/ml) was added and cell viability was assessed 48 hr later. […] Tumor growth was monitored twice a week. […] Data are shown as mean±SEM. **P<0.01, ***P<0.001, ****P<0.0001 determined by unpaired student t-test (FIG. 17G) or two-way ANOVA (FIG. 17H and FIG. 17I). […]"}}}
{"smiles": "CC1(C)CCC2=C(O1)c1ccccc1C(=O)C2=O", "note": "[β-lap, β-lapachone]", "values": [{"measurement": "IFNα/β, CXCL10, IFNγ and TNFα in treated tumors", "setting": "[1]", "value": "upregulated"}, {"measurement": "response to β-lap (cell survival)", "setting": "[2]", "value": "sensitivity to β-lap"}]}
